Data published in patent US10201558B2, “Compositions of selenoorganic compounds and methods of use thereof” (Alltech, Inc., priority 2014, dated 2019).
Entries after “also recorded” stand apart in the source; their conditions may differ.

Experiments:
RCAN1 = experiment: QRT-PCR of RCAN1 and RCAN1.1 mRNA in control and FOXO4 KD IMR-32 cells; assay type: cell-based, human; conditions: 24 hours
Procedure: (§1) IMR-32 cells were cultured on 12-well plates for 24 hours and then incubated with FOXO4 siRNA lentiviruses (SC-29650V, Santa Cruz) or control siRNA lentiviruses (sc-108080, Santa Cruz) in the presence of Polybrene (5 μg/ml, Santa Cruz) for 24 hours according to the manufacturer's protocol. These lentiviral siRNA-transfected cells were amplified in normal media for 3 days and then incubated with puromycin for 9-14 days to obtain the stable Control KD (stably transfected with the control siRNAs) and FOXO4KD (stably transfected with Foxo4 siRNAs) cells. These control and Foxo4 KD cells were subjected to cell survival, mitochondrial potential and RNA analysis.
(§2) Human IMR-32 cells were seeded on gelatinized 6-well (6.5×10^5 cells/well) or 24-well (1.3×10^5 cells/well) plates. Cells were treated with control (0 ppb) or various compounds for 6 hours or 24 hours. Total RNA from these cells was isolated using Trizol (Invitrogen) according to the manufacturer's protocol, and then incubated with DNase I to remove any potential contaminated genomic DNA. Then RNA samples were subjected to real-time PCR analysis using the Applied-Bioscience's RT kit and predesigned Taqman probes (Invitrogen), as described previously (Lan et al EMBO J 2003). The mRNA levels of UCP1, UCP2, UCP3, SLC25A27 (UCP4), SLC25A14 (UCP5), PSEN1, Nicastrin, GSK3B, MAPK11-14, PPARG, APOE, RCAN1, RCAN1.1, G6PC, INSR, IGF1R and FOXO4 were measured. Three to six samples were analyzed in each treatment group. Data were normalized by Actin B (ACTB) or Glyceraldehyde Phosphate Dehydrogenase (GAPDH) mRNA levels in each sample and are presented as mean±SEM of 3-6 samples.
To investigate whether Compound C can regulate transcription of RCAN1 in a dose-dependent and FOXO4-dependent manner, normal control cells and FOXO4 KD cells were treated with two doses of Compound C for 24 hours, and subjected to QRT-PCR analysis. First a specific RCAN1 Taqman probe that can recognize all RCAN1 mRNA isoforms was used to determine if Compound C can regulate the transcription of RCAN1.
To further determine whether Compound C can regulate the transcription of RCAN1.1 mRNA, the above Compound C-treated RNA samples were subjected to QRT-PCR using a specific RCAN1.1 mRNA Taqman probe.

[1] = test system: Insulin Degrading Enzyme (IDE); experiment: Western blot of insulin degrading enzyme in APP/PS1 mouse brains; assay type: in vivo; conditions: APP/PS1 mice, Compound C diet vs control diet
Procedure: (§3) Male APPΔNLh/ΔNLh×PS1P246 L/246 L knock-in model mice of Alzheimer's disease (abbreviated APP/PS1) were genotyped using standard primers for human APP (Amyloid Precursor Protein) and human PS1 (PSEN1). These APP/PS1 mice starting at the age of 6 months, were fed either a control diet containing normal levels of selenium (0.3 ppm from plant and inorganic selenium salt sources) or an experimental diet containing Compound C (the control diet to which was added 1 ppm Se from Compound C) for 6 months. […]
(§4) Frozen hemispheres of control- and Compound C-treated APP/PS1 mice were weighed and homogenized in PBS buffer, and then subsequently extracted with RIPA buffer (Sigma) containing complete proteinase and phosphatase inhibitors (Fisher Scientific). Protein levels in the samples were determined by micro-BCA protein analysis according to the manufacturer's protocol. […] Positive signals on the membrane blots were detected using Amersham's enhanced chemiluminescence Western Blotting Prime Detection reagents (GE healthcare Lifescience, Pittsburgh, Pa.). Images of these luminescence signals on the membrane blots were captured using the LI-COR Odyssey Fc Image system (Lincoln, Nebr.). Protein band densities in Western blots were determined using NIH Image J software, and then normalized by Actb levels in each samples to obtain the protein levels.

MAPK11 = experiment: QRT-PCR of MAPK11 mRNA in control and FOXO4 KD IMR-32 cells; assay type: cell-based, human; conditions: 24 hours
Procedure: as §1, §2
Normal control cells and FOXO4KD cells were incubated with two doses of Compound C for 24 hours, and subjected to QRT-PCR analysis of the MAPK11-14 genes. The relative mRNA expression of all four MAPK genes in normal control IMR-32 cells was assessed. […] Data in Compound C-treated control and FOXO4 KD cells were normalized by their levels in control and FOXO4KD cells, respectively. Mean±SEM of indicated number of samples in the bar graphs. […]

BACE1 = experiment: Western blot of BACE1 in APP/PS1 mouse brains; assay type: in vivo; conditions: APP/PS1 mice, Compound C diet vs control diet
Procedure: as §3, §4

[2] = FOXO4KD cells, 75 ppb and 150 ppb

C[Se]C[C@H]1O[C@@H](n2cnc3c(N)ncnc32)C(O)C1O (stereo in doubt) [Compound C, 5′-deoxy-5′-methylselenoadenosine]
RCAN1.1 mRNA expression (RCAN1; [2]): not significantly affected | total RCAN1 mRNA levels (RCAN1; [2]): not significantly altered | total RCAN1 mRNA levels (RCAN1; control cells (control siRNA lentiviruses), 75 ppb and 150 ppb): dose-dependent decrease; also recorded: significantly attenuated | RCAN1.1 mRNA expression (RCAN1; control cells, 150 ppb): inhibited | IDE protein levels in the brains [1]: increased; also recorded: elevated | MAPK11 mRNA levels (MAPK11; [2]): none of the mRNA levels of the four MAPK genes in FOXO4KD cells were significantly altered | MAPK11 mRNA levels (MAPK11; control KD cells, 75 ppb): significant decrease | MAPK11 mRNA levels (MAPK11; control KD cells, 150 ppb): significantly decreased | BACE-1 protein levels in the brains (BACE1): reduced; also recorded: decreased
